Measurements: patent US20110039763A1, “TARGETED ANTIMICROBIAL MOIETIES” (C3 JIAN, INC., priority 2009, published 2011)

How the values were obtained:
microorganisms [1] = experiment: Peptide activities: targeting/binding, antimicrobial, growth or phenotype altering (Tables 7, 8); assay type: cell-based; details: peptides having multiple activities
From the text: In certain embodiments, peptides described herein can have multiple activities. Thus for example, a peptide can have both binding/targeting activity and antimicrobial activity. Such peptides can be used, e.g., in a chimeric construct, for any or all of these properties. Thus, for example, a peptide designated “B” in Table 8 can be used as a targeting peptide. If it is also designated G or M it can also be used for antimicrobial activity.
Table 8. Peptides Having Multiple Activities. B: Targeting/Binding Activity; M: Antimicrobial Activity; G: GROWTH or Phenotype Altering.

microorganisms [2] = experiment: Morphology, biofilm and growth disrupting peptides (Table 5); assay type: cell-based; set-up: key: A: Peptide aggregates; B: Less hyphal formation; Clumps; Diffuse clumps and small polyps; F: Diffuse growth; H: Thin; I: Growth inhibition; Microcolony formation; Rippled; Small polyps; Thick; W: Halo formation on top, microlonies on bottom
From the text: In certain embodiments peptides that induce alterations in phenotype or other biological activities can also be used as antimicrobial effector moieties.

Substance	Activities (microorganisms [1])	Organism, effect: B. subtilis (microorganisms [2]; B. subtilis)	Organism, effect: C. jeikeium (microorganisms [2])	Organism, effect: C. jejuni (microorganisms [2])	Organism, effect: M. luteus (microorganisms [2])	Organism, effect: MRSA (microorganisms [2])	Organism, effect: S. epidermidis (microorganisms [2])	Organism, effect: S. pneumoniae (microorganisms [2])	Organism, effect: E. coli (microorganisms [2])	Organism, effect: E. faecalis (microorganisms [2])	Organism, effect: P. aeruginosa (microorganisms [2])
PF-145: peptide having multiple activities (chain 1 GIVLTGRAGLVSGACSMALGVGLG; chain 2 GIVLTGRAGLVSGACSMALGVGLG; Peptide with targeting and/or antimicrobial activity)	G B	B. subtilis (C)	C. jeikeium (R)	C. jejuni (R)	M. luteus (A)	MRSA (M)	S. epidermidis (D)	S. pneumoniae (R)			
PF-157: peptide having multiple activities (HTAVVWLAGVSGCVALSHCEPA; Peptide with targeting and/or antimicrobial activity)	G B						S. epidermidis (M)				
PF-178: peptide having multiple activities (EVYSSPTNNVAITVQNN; Peptide with targeting and/or antimicrobial activity)	G B					MRSA (M)	S. epidermidis (D)	S. pneumoniae (D)	E. coli (C)		
PF-190: peptide having multiple activities (HFILRKPLLFMIHSLKTGPLDRF; Peptide with targeting and/or antimicrobial activity)	G B		C. jeikeium (R)				S. epidermidis (C)				
PF-196: peptide having multiple activities (TTARYIRRQCHTSITPLSQG; Peptide with targeting and/or antimicrobial activity)	G B		C. jeikeium (R)				S. epidermidis (C)				
PF-203: peptide having multiple activities (SWKCHHLAI; Peptide with targeting and/or antimicrobial activity)	G B		C. jeikeium (R)				S. epidermidis (A)				
PF-347: peptide having multiple activities (GIFTGVTVVVSLKHC; Peptide with targeting and/or antimicrobial activity)	G B					MRSA (C)	S. epidermidis (C)		E. coli (C)	E. faecalis (C)	
PF-354: peptide having multiple activities (FTFSKCRASNGRGFGTLWL; Peptide with targeting and/or antimicrobial activity)	G B					MRSA (H)					
PF-355: peptide having multiple activities (chain 1 WIAIGLLLYFSLKNQ; chain 2 WIAIGLLLYFSLKNQ; Peptide with targeting and/or antimicrobial activity)	G B			C. jejuni (D)		MRSA (A)	S. epidermidis (C)	S. pneumoniae (D)	E. coli (C)	E. faecalis (D)	P. aeruginosa (A)
PF-356: peptide having multiple activities (chain 1 VSIKIGAIVIGMIGLMELLTE; chain 2 VSIKIGAIVIGMIGLMELLTE; Peptide with targeting and/or antimicrobial activity)	G B			C. jejuni (D)		MRSA (C)	S. epidermidis (S)	S. pneumoniae (R)		E. faecalis (R)	P. aeruginosa (A)
PF-357: peptide having multiple activities (chain 1 MLTIIIGFIFWTMTLMLGYLIGEREGRKHE; chain 2 MLTIIIGFIFWTMTLMLGYLIGEREGRKHE; Peptide with targeting and/or antimicrobial activity)	G B				M. luteus (C)	MRSA (M)	S. epidermidis (M)	S. pneumoniae (M)			
PF-374: peptide having multiple activities (chain 1 HLFFVKGMFILCQKNQINDE; chain 2 HLFFVKGMFILCQKNQINDE; Peptide with targeting and/or antimicrobial activity)	G B					MRSA (M)	S. epidermidis (C)		E. coli (C)	E. faecalis (C)	
PF-376: peptide having multiple activities (chain 1 MTVFEALMLAIAFATLIVKISNKNDKK; chain 2 MTVFEALMLAIAFATLIVKISNKNDKK; Peptide with targeting and/or antimicrobial activity)	G B					MRSA (C)	S. epidermidis (C)		E. coli (C)	E. faecalis (C)	
PF-379: peptide having multiple activities (chain 1 VFVVLFIIYLASKLLTKLFPIKK; chain 2 VFVVLFIIYLASKLLTKLFPIKK; Peptide with targeting and/or antimicrobial activity)	G B					MRSA (C)	S. epidermidis (C)		E. coli (C)	E. faecalis (C)	
PF-380: peptide having multiple activities (chain 1 KKIIPLITLFVVTLVG; chain 2 KKIIPLITLFVVTLVG; Peptide with targeting and/or antimicrobial activity)	G B			C. jejuni (D)		MRSA (D)	S. epidermidis (C)	S. pneumoniae (D)	E. coli (C)	E. faecalis (C)	P. aeruginosa (A)
PF-386: peptide having multiple activities (chain 1 FTLTLITTIVAILNYKDKKK; chain 2 FTLTLITTIVAILNYKDKKK; Peptide with targeting and/or antimicrobial activity)	G B					MRSA (C)	S. epidermidis (C)		E. coli (C)	E. faecalis (C)	
PF-398: peptide having multiple activities (chain 1 ILVVLAGILLVVLSYVGISKFKMNC; chain 2 ILVVLAGILLVVLSYVGISKFKMNC; Peptide with targeting and/or antimicrobial activity)	G B					MRSA (C)	S. epidermidis (C)		E. coli (C)	E. faecalis (C)	
PF-399: peptide having multiple activities (chain 1 FPIISALLGAIICIAIYSFIVNRKA; chain 2 FPIISALLGAIICIAIYSFIVNRKA; Peptide with targeting and/or antimicrobial activity)	G B					MRSA (C)	S. epidermidis (C)		E. coli (C)	E. faecalis (C)	
PF-407: peptide having multiple activities (chain 1 KPKNKKEKTVISYEKLLSMY; chain 2 KPKNKKEKTVISYEKLLSMY; Peptide with targeting and/or antimicrobial activity)	G B					MRSA (C)	S. epidermidis (M)	S. pneumoniae (R)		E. faecalis (R)	
PF-410: peptide having multiple activities (chain 1 FALELIALCRNLFIVYFP; chain 2 FALELIALCRNLFIVYFP; Peptide with targeting and/or antimicrobial activity)	G B					MRSA (M)	S. epidermidis (C)		E. coli (S)	E. faecalis (C)	
PF-411: peptide having multiple activities (chain 1 WVAVAILLNIALQTQLT; chain 2 WVAVAILLNIALQTQLT; Peptide with targeting and/or antimicrobial activity)	G B			C. jejuni (D)		MRSA (D)	S. epidermidis (C)	S. pneumoniae (D)	E. coli (C)	E. faecalis (D)	P. aeruginosa (A)
